Data taken from publication PMC3420011, “Small-Molecule Inhibition of BRDT for Male Contraception” (Cell, 2012).

Target: T1, BRDT (Mus musculus, UniProt Q91Y44)
T1 construct: mBRDT(1) 23–133, first (N-terminal) bromodomain
Experiment: AlphaScreen competition with H4Kac4 peptide (IC50); ITC
Assay type: binding

## Cc1sc2c(c1C)C(c1ccc(Cl)cc1)=N[C@@H](CC(=O)OC(C)(C)C)c1nnc(C)n1-2 [(+)-JQ1]
  IC50: 10 nM
